Patent publication US10071981B2, “Method of priming plants against abiotic stress factors” (Research Foundation of The City University of New York, priority 2014, dated 2018)

Experiments:
[1] = system: Medicago truncatula plants; test: Real-time RT-PCR gene expression in leaves of drought-stressed plants; assay type: in vivo; conditions: pre-treated and stressed vs stressed alone plants; 30% MetOH; FIG. 7
[2] = system: Medicago truncatula plants; test: Hydrogen peroxide content in leaves of drought-stressed plants; assay type: in vivo; conditions: 100 μM foliar spraying
Experimental: Mature (40 d) Medicago truncatula ecotype Jemalong A17 plants were used for the purposes of this study. These were grown in soil medium under controlled, optimal growth conditions and were then subjected to drought stress. Drought was imposed by withholding watering for 9 d (for detailed growth and stress conditions see Filippou et al., 2011). Both NOSH and NOSH-aspirin were applied at 100 μM concentration by foliar spraying at the start of stress imposition. The hybrid donors were diluted in 70% (v/v) and 30% (v/v) methanol, 20% (v/v) acetone or 20% (v/v) DMSO. Cellular damage was evaluated by lipid peroxidation levels (TBARS content) and hydrogen peroxide (H2O2) content as previously described (Filippou et al., 2011; Tanou et al., 2012), while osmoprotective capacity was evaluated by proline content (ninhydrin assay) as previously described (Antoniou et al., 2013). Real-time RT-PCR gene expression analysis was carried out using a Biorad IQ5 thermocycler as previously described (Filippou et al., 2013b). Relative quantification of gene expression and statistical analysis of all qRT-PCR data (pairwise fixed reallocation randomization test) were performed using the REST software according to Pfaffl et al. (2002). The actin 11 gene was used as a housekeeping reference gene. […]

**Q.** How did the “FeSOD relative gene expression” value [1] turn out when `O=C(CCCO[N+](=O)[O-])Oc1ccccc1C(=O)Oc1ccc(-c2cc(=S)ss2)cc1` [NOSH-A] was run?
**A.** significant induction

**Q.** What about the “P5CR relative gene expression” value [1] of the same molecule?
**A.** significant induction

**Q.** What about the “P5CS relative gene expression” value [1] of the same molecule?
**A.** significant induction

**Q.** What about the “cAPX relative gene expression” value [1] of the same molecule?
**A.** significant suppression

**Q.** What about the H2O2 levels ([2]; 30% (v/v) MetOH, vs drought-stress samples, FIG. 5) of the same molecule?
**A.** significantly lower H2O2 levels

**Q.** What about the H2O2 content ([2]; 70% (v/v) MetOH, drought 9 d, FIG. 4) of the same molecule?
**A.** significantly reversed
